From US20120029045A1, “METHOD FOR TREATING PORT WINE STAINS” (SHANGHAI FUDAN-ZHANGJIANG BIO-PHARMACEUTICAL CO., LTD., priority 2010, published 2012)

Key:
[1] = Pharmacokinetics of HMME in human body; format: in vivo
Description: Porphyrin-based photosensitizing drugs were injected intravenously at a dose of 2.5 and 5.0 mg/kg body weight for 20 minutes with a constant flow rate, and the pharmokinetics measured. Blood samples were taken at 5, 10, 20, 25, 30, 40, 50, 80, 110, 140, 200, 260 and 380 minutes separately to measure the serum concentrations of porphyrin-based photosensitizing drugs.

[2] = PDT for PWS, adverse effects and crust levels; format: in vivo, human
Description: A solution of 1 ml saline was injected in the superficial vein (e.g. median cubital vein) of patients to ensure no liquid leaked into tissues adjacent to the blood vessels into which the injection was made. At the same site, HMME was injected intravenously for 20 minutes with a constant flow rate by using an infusion pump. The doses applied were 2.5 mg/kg body weight or 5.0 mg/kg body weight. Next, 2-4 ml of saline solution was again injected to prevent the drugs from aggregating locally. Irradiation with KTP532 laser was then applied to the patient's lesion site 0-10 minutes after the start of injection, for a total duration of irradiation of either 20 minutes (denoted as the 20 min group), or 30 minutes (denoted as the 30 minute group). […] When irradiation was started immediately after the start of injection, the overlap between the injection and irradiation was about 20 minutes, when irradiation started 5 minutes after the start of injection, the overlap between drug injection and light irradiation was approximately 15 minutes, and when irradiation was started 10 minutes after the start of injection, the overlap was about 10 minutes. The therapeutic results were measured 8 weeks after the treatment. The most common adverse temporary effects included swelling, burning, redness, pain, blister and crust formation in PDT for PWS and these symptoms occurred in almost every case. Scar or crust thickness was measured as thickening of crusts. The crust levels served as an assessment index for scars.

[3] = 2.5 mg/kg iv over 20 min at constant flow rate
[4] = 5.0 mg/kg iv over 20 min at constant flow rate
[5] = Part A, 5.0 mg/kg, patients treated for 20 min
[6] = Part B, 2.5 mg/kg group, irradiated 20 min
[7] = Part B, 5.0 mg/kg group, irradiated 20 min
[8] = Part B, 2.5 and 5.0 mg/kg, irradiated 20 min

With hematoporphyrin monomethyl ether [HMME] the “AUC0˜n” value [1, 3] was 6342 ± 2824 ng·h/mL, the Cmax [1, 3] was 17491 ± 7045 ng/mL and the t1/2 [1, 3] was 1.26 ± 0.33 h. The “AUC0˜n” value [1, 4] was 17531 ± 3467 ng·h/mL, the Cmax [1, 4] was 35724 ± 4539 ng/mL and the t1/2 [1, 4] was 1.31 ± 0.33 h. For the same substance, the “Blister, Mild (cases)” value ([2]; 5.0 mg/kg, 20 min group) was 0, the “Blister, Moderate (cases)” value ([2]; 5.0 mg/kg, 20 min group) was 0 and the “Blister, Rate (%)” value ([2]; 5.0 mg/kg, 20 min group) was 0.0%. The “Blister, total (cases)” value ([2]; 5.0 mg/kg, 20 min group) was 10, the “Burning, Mild (cases)” value ([2]; 5.0 mg/kg, 20 min group) was 0 and the “Burning, Moderate (cases)” value ([2]; 5.0 mg/kg, 20 min group) was 0. The “Burning, Rate (%)” value ([2]; 5.0 mg/kg, 20 min group) was 0.0%, the “Burning, total (cases)” value ([2]; 5.0 mg/kg, 20 min group) was 0 and the “Pain, Mild (cases)” value ([2]; 5.0 mg/kg, 20 min group) was 1. The “Pain, Moderate (cases)” value ([2]; 5.0 mg/kg, 20 min group) was 9, the “Pain, Rate (%)” value ([2]; 5.0 mg/kg, 20 min group) was 50.0% and the “Pain, total (cases)” value ([2]; 5.0 mg/kg, 20 min group) was 10. The “Redness, Mild (cases)” value ([2]; 5.0 mg/kg, 20 min group) was 0, the “Redness, Moderate (cases)” value ([2]; 5.0 mg/kg, 20 min group) was 0 and the “Redness, Rate (%)” value ([2]; 5.0 mg/kg, 20 min group) was 0.0%. For the same substance, the “Redness, total (cases)” value ([2]; 5.0 mg/kg, 20 min group) was 0, the “Swelling, Mild (cases)” value ([2]; 5.0 mg/kg, 20 min group) was 9 and the “Swelling, Moderate (cases)” value ([2]; 5.0 mg/kg, 20 min group) was 9. The “Swelling, Rate (%)” value ([2]; 5.0 mg/kg, 20 min group) was 90.0%, the “Swelling, total (cases)” value ([2]; 5.0 mg/kg, 20 min group) was 18 and the “crust level Moderate thick and fractional, (%)” value ([2]; 5.0 mg/kg, 20 min group) was “(5.0) %”. The “crust level Moderate thick and full, (%)” value ([2]; 5.0 mg/kg, 20 min group) was “(0.0) %”, the “crust level None, (%)” value ([2]; 5.0 mg/kg, 20 min group) was “(25.0) %” and the “crust level Thin and fractional, (%)” value ([2]; 5.0 mg/kg, 20 min group) was “(50.0) %”. The “crust level Thin and full, (%)” value ([2]; 5.0 mg/kg, 20 min group) was “(20.0) %”, the “Blister, Mild (cases)” value ([2]; 5.0 mg/kg, 30 min group) was 2 and the “Blister, Moderate (cases)” value ([2]; 5.0 mg/kg, 30 min group) was 0. The “Blister, Rate (%)” value ([2]; 5.0 mg/kg, 30 min group) was 10.0%, the “Blister, total (cases)” value ([2]; 5.0 mg/kg, 30 min group) was 2 and the “Burning, Mild (cases)” value ([2]; 5.0 mg/kg, 30 min group) was 0. The “Burning, Moderate (cases)” value ([2]; 5.0 mg/kg, 30 min group) was 1, the “Burning, Rate (%)” value ([2]; 5.0 mg/kg, 30 min group) was 5.0% and the “Burning, total (cases)” value ([2]; 5.0 mg/kg, 30 min group) was 1. For the same substance, the “Pain, Mild (cases)” value ([2]; 5.0 mg/kg, 30 min group) was 3, the “Pain, Moderate (cases)” value ([2]; 5.0 mg/kg, 30 min group) was 12 and the “Pain, Rate (%)” value ([2]; 5.0 mg/kg, 30 min group) was 75.0%. For the same substance, the “Pain, total (cases)” value ([2]; 5.0 mg/kg, 30 min group) was 15, the “Redness, Mild (cases)” value ([2]; 5.0 mg/kg, 30 min group) was 0 and the “Redness, Moderate (cases)” value ([2]; 5.0 mg/kg, 30 min group) was 2. For the same substance, the “Redness, Rate (%)” value ([2]; 5.0 mg/kg, 30 min group) was 10.0%, the “Redness, total (cases)” value ([2]; 5.0 mg/kg, 30 min group) was 2 and the “Swelling, Mild (cases)” value ([2]; 5.0 mg/kg, 30 min group) was 6. For the same substance, the “Swelling, Moderate (cases)” value ([2]; 5.0 mg/kg, 30 min group) was 12, the “Swelling, Rate (%)” value ([2]; 5.0 mg/kg, 30 min group) was 90.0% and the “Swelling, total (cases)” value ([2]; 5.0 mg/kg, 30 min group) was 18. For the same substance, the “crust level Moderate thick and fractional, (%)” value ([2]; 5.0 mg/kg, 30 min group) was “(5.0) %”, the “crust level Moderate thick and full, (%)” value ([2]; 5.0 mg/kg, 30 min group) was “(15.0) %” and the “crust level None, (%)” value ([2]; 5.0 mg/kg, 30 min group) was “(15.0) %”. For the same substance, the “crust level Thin and fractional, (%)” value ([2]; 5.0 mg/kg, 30 min group) was “(25.0) %”, the “crust level Thin and full, (%)” value ([2]; 5.0 mg/kg, 30 min group) was “(40.0) %” and the “severity of adverse effects” value ([2]; Part A, 5.0 mg/kg, irradiation 20 or 30 min) was “mild or moderate”. The scars [2, 5] was “no scars were present”, the serious-thick crusts [2, 5] was “No serious-thick crusts occurred” and the “Crust Total, Rate (%)” value [2, 6] was 34.7%. For the same substance, the “Crust level Mild, Rate (%)” value [2, 6] was 34.7%, the “Crust level Moderate, Rate (%)” value [2, 6] was 0.0% and the “Crust level Serious, Rate (%)” value [2, 6] was 0.0%. The “Crust Total, Rate (%)” value [2, 7] was 88.01%, the “Crust level Mild, Rate (%)” value [2, 7] was 60.0% and the “Crust level Moderate, Rate (%)” value [2, 7] was 28.0%. The “Crust level Serious, Rate (%)” value [2, 7] was 0.0%, the scars [2, 8] was “no scars were formed” and the serious-thick crusts [2, 8] was “No serious-thick crusts occurred”.
